Experimental data as given in paper PMC5540273, “Progress towards a public chemogenomic set for protein kinases and a call for contributions” (PLoS ONE, 2017).

Tests used:
Test in all cases: KINOMEscan competition binding
[1] = biological target: CSNK2A2 (Homo sapiens, UniProt P19784); details: read-out: %Inh CSNK2A2
[2] = biological target: T1, HIPK4 (Homo sapiens, UniProt Q8NE63); details: read-out: %Inh HIPK4
T1 sequence (Q8NE63 1-616): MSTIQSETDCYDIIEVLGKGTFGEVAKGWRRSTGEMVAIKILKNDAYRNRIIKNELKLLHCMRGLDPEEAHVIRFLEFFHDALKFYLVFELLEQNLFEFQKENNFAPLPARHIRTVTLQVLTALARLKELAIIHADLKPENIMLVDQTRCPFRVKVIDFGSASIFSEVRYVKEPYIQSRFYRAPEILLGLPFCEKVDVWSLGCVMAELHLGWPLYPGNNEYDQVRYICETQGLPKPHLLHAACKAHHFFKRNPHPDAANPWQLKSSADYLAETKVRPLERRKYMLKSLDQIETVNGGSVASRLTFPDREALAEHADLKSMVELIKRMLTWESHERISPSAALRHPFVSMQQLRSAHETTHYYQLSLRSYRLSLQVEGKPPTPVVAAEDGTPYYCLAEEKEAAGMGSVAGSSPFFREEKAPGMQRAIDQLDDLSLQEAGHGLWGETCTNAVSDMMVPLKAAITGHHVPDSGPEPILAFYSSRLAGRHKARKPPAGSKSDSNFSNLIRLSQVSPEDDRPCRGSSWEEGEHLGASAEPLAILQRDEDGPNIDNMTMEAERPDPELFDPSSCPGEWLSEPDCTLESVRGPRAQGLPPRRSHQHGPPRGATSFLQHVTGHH

[3] = biological target: FRK (Homo sapiens, UniProt P42685); details: read-out: %Inh FRK
[4] = biological target: T2, GRK7 (Homo sapiens, UniProt Q8WTQ7); details: read-out: %Inh GRK7
T2 sequence (Q8WTQ7 1-553): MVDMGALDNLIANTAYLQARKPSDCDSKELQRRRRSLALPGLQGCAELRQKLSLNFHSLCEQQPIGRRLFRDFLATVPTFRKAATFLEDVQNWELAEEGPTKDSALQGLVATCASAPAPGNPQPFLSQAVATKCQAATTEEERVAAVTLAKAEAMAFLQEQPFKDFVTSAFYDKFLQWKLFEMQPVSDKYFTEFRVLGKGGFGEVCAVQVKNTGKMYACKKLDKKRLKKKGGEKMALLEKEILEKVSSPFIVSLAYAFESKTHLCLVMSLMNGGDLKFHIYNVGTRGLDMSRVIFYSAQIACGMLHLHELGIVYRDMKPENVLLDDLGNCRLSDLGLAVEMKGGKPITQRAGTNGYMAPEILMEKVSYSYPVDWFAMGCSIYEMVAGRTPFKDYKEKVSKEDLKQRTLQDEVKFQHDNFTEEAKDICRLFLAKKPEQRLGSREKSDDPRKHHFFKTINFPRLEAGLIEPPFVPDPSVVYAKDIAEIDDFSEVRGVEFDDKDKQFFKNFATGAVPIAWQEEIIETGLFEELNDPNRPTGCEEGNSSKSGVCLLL

[5] = biological target: T3, ADCK4 (Homo sapiens, UniProt Q96D53); details: read-out: %Inh ADCK4
T3 sequence (Q96D53 1-544): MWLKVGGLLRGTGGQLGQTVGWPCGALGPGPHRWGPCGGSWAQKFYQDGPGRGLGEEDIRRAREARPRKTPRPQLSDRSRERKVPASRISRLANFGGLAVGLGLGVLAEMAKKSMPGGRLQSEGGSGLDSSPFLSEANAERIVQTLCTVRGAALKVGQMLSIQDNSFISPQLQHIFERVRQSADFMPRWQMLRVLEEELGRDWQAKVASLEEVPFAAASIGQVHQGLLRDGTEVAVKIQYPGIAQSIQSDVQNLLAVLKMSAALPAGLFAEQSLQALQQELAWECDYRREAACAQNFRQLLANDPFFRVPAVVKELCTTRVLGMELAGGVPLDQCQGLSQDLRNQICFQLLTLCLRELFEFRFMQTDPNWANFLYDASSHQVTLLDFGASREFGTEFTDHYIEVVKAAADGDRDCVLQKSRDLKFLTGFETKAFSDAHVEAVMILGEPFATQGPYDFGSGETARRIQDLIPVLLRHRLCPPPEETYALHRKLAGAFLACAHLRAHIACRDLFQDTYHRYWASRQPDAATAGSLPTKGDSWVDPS

[6] = biological target: ADCK3 (Homo sapiens, UniProt Q8NI60); details: read-out: %Inh ADCK3
[7] = biological target: T4, ARK5 (Homo sapiens, UniProt O60285); details: read-out: %Inh ARK5
T4 sequence (O60285 1-661): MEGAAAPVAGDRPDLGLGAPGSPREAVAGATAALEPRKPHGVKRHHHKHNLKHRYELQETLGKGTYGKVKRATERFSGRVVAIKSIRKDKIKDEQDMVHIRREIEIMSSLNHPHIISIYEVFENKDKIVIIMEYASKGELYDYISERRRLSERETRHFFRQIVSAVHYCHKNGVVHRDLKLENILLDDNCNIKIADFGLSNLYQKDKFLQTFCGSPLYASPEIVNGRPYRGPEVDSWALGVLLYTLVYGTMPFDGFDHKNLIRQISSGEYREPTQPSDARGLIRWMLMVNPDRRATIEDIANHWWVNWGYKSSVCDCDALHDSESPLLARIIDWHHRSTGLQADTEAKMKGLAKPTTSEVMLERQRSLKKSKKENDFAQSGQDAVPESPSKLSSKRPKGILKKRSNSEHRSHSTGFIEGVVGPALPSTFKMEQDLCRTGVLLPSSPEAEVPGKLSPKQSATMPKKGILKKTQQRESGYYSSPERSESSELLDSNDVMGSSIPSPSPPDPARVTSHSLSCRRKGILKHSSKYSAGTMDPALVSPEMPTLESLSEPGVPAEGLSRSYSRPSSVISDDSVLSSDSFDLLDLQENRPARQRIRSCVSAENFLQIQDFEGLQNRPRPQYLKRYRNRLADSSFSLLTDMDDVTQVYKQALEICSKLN

[8] = biological target: CSNK1E (Homo sapiens, UniProt P49674); details: read-out: %Inh CSNK1E

SMILES	inhibition at 1 µM [1] [%]	inhibition at 1 µM [2] [%]	inhibition at 1 µM [3] [%]	inhibition at 1 µM [4] [%]	inhibition at 1 µM [5] [%]	inhibition at 1 µM [6] [%]	inhibition at 1 µM [7] [%]	inhibition at 1 µM [8] [%]
Cn1cc(-c2cnc(N)c3c(-c4ccc5c(c4)CCN5C(=O)Cc4ccccc4)csc23)cn1 [UNC10225012A]	1	0	38	6	0	7	3	1
O=c1cc(N2CCOCC2)nc2n(Cc3cccc(Cl)c3Cl)c(C3CC3)nn12 [UNC10225469A]	0	0	0	0	0	11	0	11
COc1cccc(OC)c1C(=O)Nc1cccc(-c2nn3ccccc3c2-c2ccnc(Nc3cccc(F)c3)n2)c1 [UNC10225310A]	23	84	16	17	0	0	0	64
CS(=O)(=O)Cc1ccc(Nc2nccc(-c3c(-c4cccc(NC(=O)C5CCCCC5)c4)nn4ncccc34)n2)cc1 [UNC10225159A]	1	0	4	5	0	24	0	20
Cc1ccc(NC(=O)Nc2cccc(C(F)(F)F)c2)cc1 [UNC10225187A]	0	0	0	10	0	5	0	0
